# Test results reported in US6670382B2, “Hydroxyformamidine derivatives and medicines containing the same” (Taisho Pharmaceutical Co., Ltd., priority 2000, dated 2003).
# pIC50: −log10 of the molar value.
# What was measured:
# [1] = tested on: 20-HETE synthase derived from rat kidney microsome; assay: Inhibitory effect of 20-HETE synthase derived from rat kidney microsome; assay type: biochemical; settings: SHR rat kidney microsome; for pIC50: concentration at which 20-HETE production was inhibited to 50%; for Inhibition (1 µM): inhibition rate of 20-HETE production, subject compound 1 μM, 3H-arachidonic acid, NADPH, 1.5 hours at 37° C., pH 7.4
# Method: [Inhibitory Effect of 20-HETE Synthase Derived from Rat Kidney Microsome]
# Regarding the compounds listed in the Table described above, their inhibitory activities on production of 20-HETE were examined.
# This examination was carried out based on the method described in J. Pharmacol. Exp. Ther., Vol. 268, p. 474 (1994).
# The subject compound in an amount of 1 μM was added to a 50 mM of 3-morpholinopropanesulfonic acid buffer (MOPS) (pH 7.4), containing 5 mM of magnesium chloride, and 1 mM of ethylenediaminetetraacetic acid (EDTA) disodium salt.
# Subsequently, the rat kidney microsome fraction prepared from the kidney of a spontaneously hypertensive rat (male, 6 weeks of age) as an enzyme, [5,6,8,9,11,12,14,15] tritium-arachidonic acid (supplied by Amasham) as a substrate, and NADPH (supplied by Sigma) as a coenzyme were added, and were reacted for 1.5 hours at 37° C.
# After the reaction was quenched by adding formic acid (supplied by Wako Pure Chemical Industries Ltd.) to the reaction solution, acetonitrile (final concentration of 50%) was added thereto, and the mixture was allowed to stand for 1.5 hours at room temperature. The amount of 20-HETE production was measured by using a high performance liquid chromatography having a detector for radioactive substances (supplied by Gilson), equipped with an ODS column (Biocyl C18, supplied by Bio-rad).
# Setting an amount of 20-HETE production to 100% when no subject compound was added, the inhibition rate (%) was calculated from the amount of 20-HETE production when a subject compound was added.
# In addition, setting an amount of 20-HETE production to 100% when no subject compound was added, the concentration of the subject compound at which the production of the 20-HETE was inhibited to 50% when the subject compound is added (IC50 value) was also calculated.
SMILES,pIC50 [1],melting point [°C],Inhibition (1 µM) [1] [%]
COc1ccccc1CCOc1ccc(N/C=N/O)cn1 [Comp. 69],8.19,159.5 to 161,102.8
O/N=C/Nc1ccc(OCc2ccccc2)nc1 [Comp. 9],8.04,163.5 to 164,82.9
C/C=C/COc1ccc(N/C=N/O)cn1 [Comp. 45],7.97,143 to 144.5,80.3
O/N=C/Nc1ccc(OCC2CCCO2)nc1 (centres unmarked) [Comp. 96],6.85,114 to 115,92.3
CCC(C)Sc1ccc(N/C=N/O)cn1 (centres unmarked) [Comp. 111],7.47,125.5 to 127.5,76.8
COc1cccc(COc2ccc(N/C=N/O)cn2)c1 [Comp. 78],8.38,126 to 127,100.2
CN1CCC(CCOc2ccc(N/C=N/O)cn2)CC1 [Comp. 128],6.51,131 to 133,–
CN1CCCC(COc2ccc(N/C=N/O)cn2)C1 (centres unmarked) [Comp. 124],6.85,122 to 124,92.6
"CC#CCOc1ccc(N/C=N/O)cn1 [Comp. 65, N-[2-(2-butyn-1-oxy)pyridin-5-yl]-N′-hydroxyformamidine]",7.17,155.5 to 157,86.9
CSCCOc1ccc(N/C=N/O)cn1 [Comp. 92],7.14,111.5 to 112,87.6
CN(C)CCCOc1ccc(N/C=N/O)cn1 [Comp. 132],6.25,108 to 112,–
CCCCOc1ccc(N/C=N/O)cn1 [Comp. 10],6.78,127 to 128,106.3
C#CCCCOc1ccc(N/C=N/O)cn1 [Comp. 56],7.83,124.5 to 125.5,102.1
COCCOc1ccc(N/C=N/O)cn1 [Comp. 7],6.11,104.5 to 106,41.9
COc1ccc(COc2ccc(N/C=N/O)cn2)cc1 [Comp. 77],8.48,164.5 to 165.5,100.3
O/N=C/Nc1ccc(OCC2COCO2)nc1 (centres unmarked) [Comp. 87],6.58,186.5 to 187,87.0
CCN(CC)CCSc1ccc(N/C=N/O)cn1 [Comp. 127],6.48,124.5 to 125.5,–
COc1cccc(COc2ccc(N/C=N/O)cn2)c1OC [Comp. 82],7.22,128.5 to 129,104.5
O/N=C/Nc1ccc(OCc2cc(F)ccc2F)nc1 [Comp. 73],8.19,158.5 to 159.5,105.0
O/N=C/Nc1ccc(OCC2CCCCO2)nc1 (centres unmarked) [Comp. 97],7.24,149.5 to 152.5,85.5
"O/N=C/Nc1ccc(SCc2ccccc2)nc1 [Comp. 104, N-[2-(benzylthio)pyridin-5-yl]-N′-hydroxyformamidine]",–,133 to 135,103.6
O/N=C/Nc1ccc(OCCc2cccs2)nc1 [Comp. 98],8.37,137.5 to 138.5,100.7

# The next lines start with results.
pIC50 [1],melting point [°C],SMILES,Inhibition (1 µM) [1] [%]
7.27,110 to 111.5,CN(C)CCCCCCOc1ccc(N/C=N/O)cn1 [Comp. 133],–
9.22,74 to 76.5,"CN(C)CC(C)(C)COc1ccc(N/C=N/O)cn1 [Comp. 123, N-[2-(3-dimethylamino-2,2-dimethylpropyl-1-oxy)pyridin-5-yl]-N′-hydroxyformamidine]",97.5
7.94,153.5 to 154.5,O/N=C/Nc1ccc(SC2CCCC2)nc1 [Comp. 109],82.1
8.36,99 to 100,CCOCCCOc1ccc(N/C=N/O)cn1 [Comp. 59],109.6
8.23,120 to 122,C=CCCCOc1ccc(N/C=N/O)cn1 [Comp. 54],111.7
8.18,109 to 111,CSCCCOc1ccc(N/C=N/O)cn1 [Comp. 93],97.4
8.49,153 to 154,O/N=C/Nc1ccc(OCCOc2ccccc2)nc1 [Comp. 94],100.3
6.93,105 to 105.5,OCCCSc1ccc(N/C=N/O)cn1 [Comp. 120],102.0
–,119 to 120,C=CCCOc1ccc(N/C=N/O)cn1 [Comp. 55],87.3
8.41,166.5 to 167.5,O/N=C/Nc1ccc(OCc2ccc(F)cc2)nc1 [Comp. 80],102.9
8.01,151 to 152,CC#CCCOc1ccc(N/C=N/O)cn1 [Comp. 46],89.9
7.34,82 to 84,CC/C=C/COc1ccc(N/C=N/O)cn1 [Comp. 47],99.2
6.22,116.5 to 117,CC(C)Oc1ccc(N/C=N/O)cn1 [Comp. 8],71.0
6.53,115 to 115.5,OCCSc1ccc(N/C=N/O)cn1 [Comp. 107],83.1
7.83,128.5 to 130,O/N=C/Nc1ccc(OCCc2ccccn2)nc1 [Comp. 5],–
8.17,123 to 125,CC(C)CCOc1ccc(N/C=N/O)cn1 [Comp. 53],108.5
7.23,146.5 to 147.5,COc1ccccc1COc1ccc(N/C=N/O)cn1 [Comp. 72],92.9
8.77,166.5 to 167,N#Cc1cccc(COc2ccc(N/C=N/O)cn2)c1 [Comp. 81],104.4
7.92,140.5 to 141.5,O/N=C/Nc1ccc(SCc2ccco2)nc1 [Comp. 110],85.7
